Type in all cases: toxicity, cell-based
One data set deals with HEK-293T. The experiment in a line: Incucyte cell viability with HEK293T. The following applies: human, 10 µM, compound concentration 10 uM.
A further data set relates to Fibroblast. The experiment in a line: Incucyte cell viability with human fibroblast. The note with it: 10 µM, compound concentration 10 uM.
The subject of a further data set is U2OS. Kind of data set: Incucyte cell viability with U2OS. The following applies: human, 10 µM, compound concentration 10 uM.
Further: unitless GR value; below 1 slowed growth and below 0 cell loss.

With `Cc1nsc(Nc2cnc(C(F)(F)F)cn2)c1C(=O)Nc1ccc(O[C@H]2CCCN(CC(F)(F)F)C2)nc1`, the “Growth Rate” value with HEK-293T (0 h, replicate number 1) is recorded as -0.98; with HEK-293T (6 h, replicate number 1), -0.28; with HEK-293T (6 h, replicate number 2), -0.6; in the data set on HEK-293T (12 h, replicate number 1), -0.36; with HEK-293T (12 h, replicate number 2), -0.54; in the data set on HEK-293T (18 h, replicate number 1) it was -0.3. Also, the “Growth Rate” value in the data set on HEK-293T (18 h, replicate number 2) is recorded as -0.41; in the data set with HEK-293T (24 h, replicate number 1), -0.25; in the data set on HEK-293T (24 h, replicate number 2) it was -0.32; in the data set with Fibroblast (0 h, replicate number 1), -1; in the data set on Fibroblast (6 h, replicate number 1), -0.21; with Fibroblast (6 h, replicate number 2) it was -0.93. Besides, the “Growth Rate” value is given as -0.43 with Fibroblast (12 h, replicate number 1); -0.36 with Fibroblast (18 h, replicate number 1); -0.45 in the data set on Fibroblast (18 h, replicate number 2); -0.23 in the data set with Fibroblast (24 h, replicate number 1); -0.3 with Fibroblast (24 h, replicate number 2); 0.91 with U2OS (0 h, replicate number 2). In addition, the “Growth Rate” value in the data set with U2OS (6 h, replicate number 1) is reported as 0.72; with U2OS (6 h, replicate number 2), 0.73; with U2OS (12 h, replicate number 1), 0.39; in the data set with U2OS (12 h, replicate number 2), 0.59; with U2OS (18 h, replicate number 1), 0.06; with U2OS (18 h, replicate number 2), 0.57. Moreover, the “Growth Rate” value in the data set with U2OS (24 h, replicate number 1) stood at 0.03; with U2OS (24 h, replicate number 2), 0.52.

As for `Br.CO[C@H]1CC=C2CCN3CCC4=C(CC(=O)OC4)[C@]23C1`, the “Growth Rate” value is 0.77 in the data set with HEK-293T (0 h, replicate number 2); 0.59 in the data set with HEK-293T (6 h, replicate number 1); 0.93 with Fibroblast (0 h, replicate number 1); 0.3 in the data set with Fibroblast (0 h, replicate number 2); -1 with Fibroblast (6 h, replicate number 1); 0.8 in the data set on Fibroblast (6 h, replicate number 2). The “Growth Rate” value in the data set on Fibroblast (12 h, replicate number 2) is listed as 0.64; with Fibroblast (18 h, replicate number 2), 0.7; in the data set with Fibroblast (24 h, replicate number 2), 0.72; in the data set on U2OS (6 h, replicate number 1), 0.39; in the data set with U2OS (6 h, replicate number 2), 0.78; with U2OS (12 h, replicate number 2), 0.77. In addition, the “Growth Rate” value with U2OS (18 h, replicate number 2) worked out at 0.87; with U2OS (24 h, replicate number 2) it was 1.

In the case of `Cc1cccc(-c2nn3c(c2-c2ccnc4ccc(C(N)=O)cc24)CCC3)n1` [GALUNISERTIB], the “Growth Rate” value with HEK-293T (0 h, replicate number 1) was -0.5; in the data set with HEK-293T (6 h, replicate number 2), 0.64; with HEK-293T (12 h, replicate number 2), 0.74; with HEK-293T (18 h, replicate number 2), 0.73; in the data set on HEK-293T (24 h, replicate number 2), 0.8; in the data set on Fibroblast (0 h, replicate number 2), -0.6. Also, the “Growth Rate” value in the data set with U2OS (0 h, replicate number 1) is -0.43; in the data set on U2OS (0 h, replicate number 2), 0.64; in the data set with U2OS (6 h, replicate number 1), 0.57; in the data set on U2OS (12 h, replicate number 1), 0.66; in the data set with U2OS (12 h, replicate number 2), 0.83; in the data set with U2OS (18 h, replicate number 1), 0.75. The “Growth Rate” value with U2OS (18 h, replicate number 2) is listed as 0.87; in the data set with U2OS (24 h, replicate number 1), 0.93; with U2OS (24 h, replicate number 2), 0.76.

Turning to `CNC(=O)c1c(F)cccc1Nc1nc(Nc2cc3c(cc2OC)CCN3C(=O)CN(C)C)nc2[nH]ccc12`, the “Growth Rate” value was -1 in the data set with HEK-293T (0 h, replicate number 1); 0.35 in the data set on HEK-293T (0 h, replicate number 2); 0.75 in the data set on HEK-293T (12 h, replicate number 2); -0.03 in the data set with HEK-293T (18 h, replicate number 2); -0.14 in the data set with HEK-293T (24 h, replicate number 2); -0.92 with Fibroblast (0 h, replicate number 1). In addition, the “Growth Rate” value in the data set with Fibroblast (6 h, replicate number 1) is 0.23; in the data set with Fibroblast (6 h, replicate number 2) it was -0.71; with Fibroblast (12 h, replicate number 1), 0.04; in the data set with Fibroblast (12 h, replicate number 2), -0.65; in the data set with Fibroblast (18 h, replicate number 1), -0.23; in the data set with Fibroblast (18 h, replicate number 2) it was -0.62. Besides, the “Growth Rate” value is given as -0.23 with Fibroblast (24 h, replicate number 1); -0.6 in the data set on Fibroblast (24 h, replicate number 2); -0.99 in the data set with U2OS (0 h, replicate number 1); -1 in the data set with U2OS (0 h, replicate number 2); 0.02 in the data set with U2OS (12 h, replicate number 1); 0.29 in the data set with U2OS (12 h, replicate number 2). The “Growth Rate” value in the data set with U2OS (18 h, replicate number 1) is reported as -0.42; in the data set with U2OS (18 h, replicate number 2) it was -0.11; in the data set on U2OS (24 h, replicate number 1) it was -0.45; in the data set with U2OS (24 h, replicate number 2), -0.14.

In the case of `CCc1ccccc1C(=O)Nc1n[nH]c2c(C)c(F)c(C3C(C#N)=C(C)N(C)C(C)=C3C#N)cc12` [BAY-3827], the “Growth Rate” value in the data set with HEK-293T (0 h, replicate number 1) is given as 0.25; with HEK-293T (0 h, replicate number 2) it was -0.99; in the data set with HEK-293T (6 h, replicate number 2), 0.11; with HEK-293T (12 h, replicate number 2), 0.34; in the data set with HEK-293T (18 h, replicate number 1) it was 0.99; with HEK-293T (18 h, replicate number 2), 0.66. For the same molecule, the “Growth Rate” value is 0.71 in the data set with HEK-293T (24 h, replicate number 2); 0.47 with Fibroblast (0 h, replicate number 1); -0.1 in the data set with Fibroblast (0 h, replicate number 2); 0.51 with U2OS (6 h, replicate number 2); 0.96 with U2OS (12 h, replicate number 1); 0.66 with U2OS (12 h, replicate number 2). Besides, the “Growth Rate” value in the data set on U2OS (18 h, replicate number 1) came out at 0.9; in the data set with U2OS (18 h, replicate number 2), 0.62; in the data set on U2OS (24 h, replicate number 1), 0.9; in the data set with U2OS (24 h, replicate number 2), 0.57.

With `CC[C@@H](C(=O)OC)n1c(=O)c2ccccc2n(Cc2cn(C)c3cccc(C)c23)c1=O`, the “Growth Rate” value is on record as -0.42 in the data set on HEK-293T (0 h, replicate number 2); -1 in the data set on Fibroblast (0 h, replicate number 1); 0.75 in the data set with Fibroblast (6 h, replicate number 1); -0.9 in the data set on Fibroblast (6 h, replicate number 2); 1 in the data set on Fibroblast (12 h, replicate number 1); 0.49 with Fibroblast (12 h, replicate number 2). The “Growth Rate” value with Fibroblast (18 h, replicate number 1) came out at 0.75; in the data set with Fibroblast (18 h, replicate number 2), 0.48; with U2OS (0 h, replicate number 2) it was 0.16; in the data set on U2OS (12 h, replicate number 2) it was 0.97; with U2OS (18 h, replicate number 2), 0.96; in the data set on U2OS (24 h, replicate number 1), 0.92. In the data set on U2OS (24 h, replicate number 2), the “Growth Rate” value is 0.9.

Turning to `Cl.Cl.O=C1c2ccccc2C(Cc2ccncc2)(Cc2ccncc2)c2ccccc21`, the “Growth Rate” value stood at 0.32 with HEK-293T (6 h, replicate number 1); 0.89 in the data set on HEK-293T (6 h, replicate number 2); 0.55 with HEK-293T (12 h, replicate number 1); 0.97 with HEK-293T (12 h, replicate number 2); 0.62 in the data set with HEK-293T (18 h, replicate number 1); 0.63 with HEK-293T (18 h, replicate number 2). The “Growth Rate” value in the data set on HEK-293T (24 h, replicate number 1) is given as 0.6; in the data set on HEK-293T (24 h, replicate number 2) it was 0.63; in the data set with Fibroblast (12 h, replicate number 1), -1; with Fibroblast (18 h, replicate number 1), 0.1; in the data set with Fibroblast (24 h, replicate number 2) it was 0.89; in the data set with U2OS (0 h, replicate number 1), -0.47. For the same molecule, the “Growth Rate” value in the data set on U2OS (0 h, replicate number 2) is listed as -0.7; with U2OS (6 h, replicate number 2), 0.24; in the data set with U2OS (12 h, replicate number 2), 0.75; in the data set on U2OS (18 h, replicate number 2), 0.92; in the data set with U2OS (24 h, replicate number 2) it was 0.88.

Consider `CCC(C)(C)NC(=NC#N)Nc1cccnc1`, for which the “Growth Rate” value is reported as 0.19 in the data set on HEK-293T (6 h, replicate number 1); 0.56 with HEK-293T (6 h, replicate number 2); 0.42 in the data set with HEK-293T (12 h, replicate number 1); 0.56 with HEK-293T (12 h, replicate number 2); 0.64 in the data set with HEK-293T (18 h, replicate number 1); 0.78 in the data set on HEK-293T (18 h, replicate number 2). Moreover, the “Growth Rate” value is recorded as 0.85 with HEK-293T (24 h, replicate number 1); 0.95 in the data set on HEK-293T (24 h, replicate number 2); -1 in the data set on Fibroblast (6 h, replicate number 1); -0.68 in the data set with U2OS (0 h, replicate number 2); 0.85 with U2OS (12 h, replicate number 2); 1 with U2OS (18 h, replicate number 1).

`O=c1ccc2c(OCCCCOc3ccccc3)c3ccoc3cc2o1`: the “Growth Rate” value is recorded as 0.49 with HEK-293T (0 h, replicate number 1); 0.37 in the data set on HEK-293T (0 h, replicate number 2); 0.95 with Fibroblast (12 h, replicate number 2); 0.92 in the data set on Fibroblast (24 h, replicate number 1); 0.26 with U2OS (0 h, replicate number 1); 0.73 in the data set with U2OS (6 h, replicate number 1). Besides, the “Growth Rate” value in the data set on U2OS (6 h, replicate number 2) worked out at 0.99; with U2OS (18 h, replicate number 1) it was 0.99; in the data set with U2OS (24 h, replicate number 1), 0.92.

Take `COc1ccc(C(F)(F)F)cc1NC(=O)Nc1ccc(Oc2cc(C)nc(N)n2)c2ccccc12`: the “Growth Rate” value in the data set on HEK-293T (0 h, replicate number 2) is given as -0.09; with HEK-293T (6 h, replicate number 1), 0.58; in the data set on HEK-293T (12 h, replicate number 1), 0.67; with HEK-293T (12 h, replicate number 2), 0.92; with HEK-293T (18 h, replicate number 1), 0.55; with HEK-293T (18 h, replicate number 2), 0.87. Moreover, the “Growth Rate” value in the data set with HEK-293T (24 h, replicate number 1) is recorded as 0.6; with HEK-293T (24 h, replicate number 2), 0.81; with Fibroblast (0 h, replicate number 1) it was -1; with Fibroblast (0 h, replicate number 2), -0.09; in the data set with Fibroblast (6 h, replicate number 2), 0.32; in the data set with Fibroblast (12 h, replicate number 2) it was 0.87. For the same molecule, the “Growth Rate” value in the data set on Fibroblast (18 h, replicate number 2) was 0.85; in the data set with Fibroblast (24 h, replicate number 2), 0.89; in the data set on U2OS (0 h, replicate number 1) it was -1.

Take `CC[C@H](Nc1ncnc2[nH]cnc12)c1nc2cccc(F)c2c(=O)n1-c1ccccc1` [IDELALISIB]: the “Growth Rate” value with HEK-293T (6 h, replicate number 1) is listed as 0.29; in the data set on HEK-293T (6 h, replicate number 2), -0.34; with HEK-293T (12 h, replicate number 1), 0.62; in the data set with HEK-293T (12 h, replicate number 2), 0.12; in the data set with HEK-293T (18 h, replicate number 1), 0.31; in the data set with HEK-293T (18 h, replicate number 2), 0.29. Further, the “Growth Rate” value with HEK-293T (24 h, replicate number 1) is on record as 0.38; with HEK-293T (24 h, replicate number 2) it was 0.36; with Fibroblast (0 h, replicate number 1), 0.15; with Fibroblast (0 h, replicate number 2) it was -0.51; in the data set with Fibroblast (6 h, replicate number 2), 0.25; with Fibroblast (12 h, replicate number 2) it was 0.49. Moreover, the “Growth Rate” value with Fibroblast (18 h, replicate number 2) was determined as 0.95; with Fibroblast (24 h, replicate number 1), 0.92; in the data set with U2OS (6 h, replicate number 2), 0.92; in the data set on U2OS (24 h, replicate number 2) it was 0.94.

The record behind these values is ChEMBL document CHEMBL5303304, “EUbOPEN Chemogenomics Library - IncuCyte” (2023).
